Like-named read-outs stand apart in the source and are kept apart here.
Tests used:
EP300-BRD = target: T1, EP300-BRD (Homo sapiens, UniProt Q09472); assay: BROMOscan ligand binding site-directed competition assay, EP300; settings: for Kd: BROMOscan; for LE EP300 (ligand efficiency): LE = 1.4(pIC50)/N
T1 construct: T7 phage display fusion with DNA tag for qPCR; purchased Eurofins Discovery (BROMOscan service); host or cells: E. coli infected with T7 phage
T1 sequence (Q09472 1049-1156 limits assumed): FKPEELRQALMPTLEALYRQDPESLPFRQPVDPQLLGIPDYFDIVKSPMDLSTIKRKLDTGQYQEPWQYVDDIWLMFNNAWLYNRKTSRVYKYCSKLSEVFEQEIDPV
Method: (§1) 2. Methods and General Procedures […]
(§2) KD values were determined using BROMOscan™ technology, carried out by Eurofins […]
(§3) Discovery according to their standard protocol. Briefly E. coli were infected with T7 phage […]
(§4) strains displaying bromodomains and bromodomain protein was subsequently purified […]
(§5) through lysis, centrifugation and filtration. Affinity resins were generated by incubation of […]
(§6) streptavidin-coated magnetic beads with biotinylated small molecules or acetylated […]
(§7) peptide ligands. Binding reactions were assembled by combining the bromodomains and […]
(§8) liganded affinity beads in binding buffer (17 % SeaBlock, 0.33x PBS, 0.04 % Tween 20, […]
(§9) 0.02 % BSA, 0.004 % sodium azide and 7.4 mM DTT) with compounds (11-point, 3-fold […]
(§10) dilution series) added to give a final DMSO concentration of 0.09 %. Assay plates were […]
(§11) incubated for 1 h, prior to washing and elution of beads. The bromodomain concentration […]
(§12) in the eluates was measured by qPCR of the DNA tag on the bromodomain.
(§13) KD values were calculated with a standard dose-response curve fitted using the Hill […]
(§14) Response = Background + Signal − Background […]
(§15) The Hill Slope was set to -1 and curves fitted using a non-linear least square fit with the Levenberg-Marquardt algorithm.
(§16) Ligand efficiency (LE) was calculated as follows: LE = 1.4(pIC50)/N

CBP = target: T2, CBP (Homo sapiens, UniProt Q92793); assay: Quantification of CBP degradation by Western blotting in LP1 cells; assay type: cell-based; settings: 16 h, Western blot; for % remaining CBP: 5 μM compound
T2 construct: quantification of CBP and EP300 levels by Western blotting following 16 h treatment of LP1 cells; endogenous in cells; host or cells: LP1 cells
T2 sequence (Q92793 whole entry): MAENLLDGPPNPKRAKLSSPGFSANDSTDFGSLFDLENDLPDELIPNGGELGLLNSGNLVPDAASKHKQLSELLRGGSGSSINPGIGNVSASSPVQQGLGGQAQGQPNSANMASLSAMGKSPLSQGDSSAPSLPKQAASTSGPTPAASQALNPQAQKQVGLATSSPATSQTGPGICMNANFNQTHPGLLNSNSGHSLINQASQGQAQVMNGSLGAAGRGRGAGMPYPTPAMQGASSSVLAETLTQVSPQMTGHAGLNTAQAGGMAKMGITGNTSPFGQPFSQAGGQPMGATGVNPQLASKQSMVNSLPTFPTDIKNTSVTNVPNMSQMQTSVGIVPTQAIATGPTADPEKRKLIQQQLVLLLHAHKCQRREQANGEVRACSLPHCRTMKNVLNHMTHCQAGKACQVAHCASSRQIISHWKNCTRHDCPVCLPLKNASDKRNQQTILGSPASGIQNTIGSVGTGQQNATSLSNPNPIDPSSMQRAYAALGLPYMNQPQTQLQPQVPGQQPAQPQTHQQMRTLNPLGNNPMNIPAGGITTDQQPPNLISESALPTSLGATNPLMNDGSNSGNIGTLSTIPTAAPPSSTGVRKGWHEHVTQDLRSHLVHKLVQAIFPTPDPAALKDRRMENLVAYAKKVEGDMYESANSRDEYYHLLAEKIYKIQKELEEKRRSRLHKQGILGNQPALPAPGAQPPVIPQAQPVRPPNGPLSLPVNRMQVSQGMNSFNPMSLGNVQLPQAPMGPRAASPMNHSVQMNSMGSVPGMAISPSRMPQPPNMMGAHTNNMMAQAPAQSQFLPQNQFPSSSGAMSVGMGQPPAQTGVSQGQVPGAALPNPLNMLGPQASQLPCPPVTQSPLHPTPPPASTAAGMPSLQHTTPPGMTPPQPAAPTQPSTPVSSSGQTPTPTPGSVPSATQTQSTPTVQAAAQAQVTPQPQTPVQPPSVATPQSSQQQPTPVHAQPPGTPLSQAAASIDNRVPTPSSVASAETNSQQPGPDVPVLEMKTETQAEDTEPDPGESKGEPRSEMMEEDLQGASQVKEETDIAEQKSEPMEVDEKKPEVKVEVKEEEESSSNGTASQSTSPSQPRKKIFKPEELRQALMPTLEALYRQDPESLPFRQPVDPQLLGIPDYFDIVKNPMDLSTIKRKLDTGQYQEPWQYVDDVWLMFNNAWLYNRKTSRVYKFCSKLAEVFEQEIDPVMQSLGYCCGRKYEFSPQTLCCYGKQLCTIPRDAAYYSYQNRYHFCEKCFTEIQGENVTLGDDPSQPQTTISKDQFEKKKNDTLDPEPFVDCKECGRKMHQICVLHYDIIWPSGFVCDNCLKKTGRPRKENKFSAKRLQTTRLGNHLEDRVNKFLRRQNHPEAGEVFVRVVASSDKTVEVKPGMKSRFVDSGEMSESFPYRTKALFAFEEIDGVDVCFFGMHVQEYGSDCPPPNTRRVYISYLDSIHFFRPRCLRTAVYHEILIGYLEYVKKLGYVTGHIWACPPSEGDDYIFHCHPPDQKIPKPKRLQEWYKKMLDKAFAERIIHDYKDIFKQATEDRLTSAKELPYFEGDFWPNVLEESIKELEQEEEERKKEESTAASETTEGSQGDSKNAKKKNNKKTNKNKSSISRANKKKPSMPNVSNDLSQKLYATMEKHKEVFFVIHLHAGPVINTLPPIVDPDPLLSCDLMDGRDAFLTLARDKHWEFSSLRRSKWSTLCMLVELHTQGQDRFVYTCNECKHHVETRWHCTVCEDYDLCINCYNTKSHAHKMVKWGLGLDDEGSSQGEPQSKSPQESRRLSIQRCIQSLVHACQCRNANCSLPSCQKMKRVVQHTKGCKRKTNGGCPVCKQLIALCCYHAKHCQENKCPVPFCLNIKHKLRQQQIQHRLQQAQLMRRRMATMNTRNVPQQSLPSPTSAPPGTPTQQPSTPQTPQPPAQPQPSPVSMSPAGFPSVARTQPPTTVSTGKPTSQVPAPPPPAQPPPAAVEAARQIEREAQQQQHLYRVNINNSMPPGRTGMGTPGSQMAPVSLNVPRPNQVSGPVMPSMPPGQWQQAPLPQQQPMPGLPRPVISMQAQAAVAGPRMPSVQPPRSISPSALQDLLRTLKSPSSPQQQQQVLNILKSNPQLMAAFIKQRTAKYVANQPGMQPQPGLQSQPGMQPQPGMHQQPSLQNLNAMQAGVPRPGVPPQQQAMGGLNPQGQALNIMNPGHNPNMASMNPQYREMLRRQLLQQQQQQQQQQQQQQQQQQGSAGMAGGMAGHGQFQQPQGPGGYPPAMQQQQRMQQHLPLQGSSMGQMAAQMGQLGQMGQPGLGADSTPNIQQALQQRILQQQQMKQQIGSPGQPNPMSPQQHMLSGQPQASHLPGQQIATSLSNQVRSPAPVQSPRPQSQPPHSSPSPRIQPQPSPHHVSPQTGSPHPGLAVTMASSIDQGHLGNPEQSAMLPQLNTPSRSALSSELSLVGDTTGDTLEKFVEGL
Method: (§17) LP1 cells were cultured in DMEM (Gibco, 41966-029) supplemented with 15 % FBS (Sigma, F9665); MM1S and LNCaP cells in RPMI 1640 ATCC modification (Gibco, […]
(§18) DMEM/F12 (Gibco, 11320074) supplemented with 1 % non-essential amino acids […]
(§19) additionally supplemented with 1 % penicillin/streptomycin (Gibco, 15070-063), and cells maintained in a humidified incubator with 5 % CO2 at 37 °C. The identity of all lines (except for MM1S which were recently purchased from ATCC) was authenticated by STR profiling (performed by Microsynth).
(§20) Quantification of CBP/EP300 degradation by Western blotting
(§21) LP1 cells plated on 6 well plates were treated with the stated compounds at a final concentration of 0.1 % DMSO for the stated time. Cells were harvested on ice, washed in PBS and lysed in RIPA buffer (50 mM tris pH 7.5, 2 mM EDTA, 150 mM NaCl, 0.5 % sodium deoxycholate, 1 % Triton X100) supplemented with cOmplete ™ protease inhibitor cocktail (Roche). Protein concentrations were determined using the Pierce ™ BCA Protein Assay Kit (Thermo Scientific, 23227) and equal amounts were separated on 4-12 % ExpressPl us™ PAGE gels (GenScript, M41215). Proteins were transferred to PVDF membranes, the membranes were blocked with 5 % milk (Merk Millipore, 115363) in PBS-T and proteins were stained with the following antibodies at 4 °C overnight: CBP […]
(§22) BRD4 (Bethyl Laboratories, A301-985A50, diluted 1:2000) and vinculin (Invitrogen, 42H89L44, diluted 1:1000). For detection, membranes were incubated for 1 h at room temperature with HRP-conjugated secondary antibodies (Southern Biotech, anti-rabbit […]
(§23) SuperSignal™ West Pico PLUS Chemiluminescent Substrate (Thermo Scientific, 34580) and the Vilber Fusion-FX7 imager. Bands were quantified using ImageJ software and protein levels normalized to protein from DMSO treated cells run on the same membrane. For dose response curves, data was fitted using a four -parameter dose-response curve in GraphPad Prism v. 9.5.1, where the top is fixed at 100 %. The DC50 was defined as the PROTAC concentration resulting in 50 % remaining protein. […]

EP300 = target: T3, EP300 (Homo sapiens, UniProt Q09472); assay: Quantification of EP300 degradation by Western blotting in LP1 cells; assay type: cell-based; settings: 16 h, Western blot; for % remaining EP300: 5 μM compound
T3 construct: quantification of CBP and EP300 levels by Western blotting following 16 h treatment of LP1 cells; endogenous in cells; host or cells: LP1 cells
T3 sequence (Q09472 whole entry): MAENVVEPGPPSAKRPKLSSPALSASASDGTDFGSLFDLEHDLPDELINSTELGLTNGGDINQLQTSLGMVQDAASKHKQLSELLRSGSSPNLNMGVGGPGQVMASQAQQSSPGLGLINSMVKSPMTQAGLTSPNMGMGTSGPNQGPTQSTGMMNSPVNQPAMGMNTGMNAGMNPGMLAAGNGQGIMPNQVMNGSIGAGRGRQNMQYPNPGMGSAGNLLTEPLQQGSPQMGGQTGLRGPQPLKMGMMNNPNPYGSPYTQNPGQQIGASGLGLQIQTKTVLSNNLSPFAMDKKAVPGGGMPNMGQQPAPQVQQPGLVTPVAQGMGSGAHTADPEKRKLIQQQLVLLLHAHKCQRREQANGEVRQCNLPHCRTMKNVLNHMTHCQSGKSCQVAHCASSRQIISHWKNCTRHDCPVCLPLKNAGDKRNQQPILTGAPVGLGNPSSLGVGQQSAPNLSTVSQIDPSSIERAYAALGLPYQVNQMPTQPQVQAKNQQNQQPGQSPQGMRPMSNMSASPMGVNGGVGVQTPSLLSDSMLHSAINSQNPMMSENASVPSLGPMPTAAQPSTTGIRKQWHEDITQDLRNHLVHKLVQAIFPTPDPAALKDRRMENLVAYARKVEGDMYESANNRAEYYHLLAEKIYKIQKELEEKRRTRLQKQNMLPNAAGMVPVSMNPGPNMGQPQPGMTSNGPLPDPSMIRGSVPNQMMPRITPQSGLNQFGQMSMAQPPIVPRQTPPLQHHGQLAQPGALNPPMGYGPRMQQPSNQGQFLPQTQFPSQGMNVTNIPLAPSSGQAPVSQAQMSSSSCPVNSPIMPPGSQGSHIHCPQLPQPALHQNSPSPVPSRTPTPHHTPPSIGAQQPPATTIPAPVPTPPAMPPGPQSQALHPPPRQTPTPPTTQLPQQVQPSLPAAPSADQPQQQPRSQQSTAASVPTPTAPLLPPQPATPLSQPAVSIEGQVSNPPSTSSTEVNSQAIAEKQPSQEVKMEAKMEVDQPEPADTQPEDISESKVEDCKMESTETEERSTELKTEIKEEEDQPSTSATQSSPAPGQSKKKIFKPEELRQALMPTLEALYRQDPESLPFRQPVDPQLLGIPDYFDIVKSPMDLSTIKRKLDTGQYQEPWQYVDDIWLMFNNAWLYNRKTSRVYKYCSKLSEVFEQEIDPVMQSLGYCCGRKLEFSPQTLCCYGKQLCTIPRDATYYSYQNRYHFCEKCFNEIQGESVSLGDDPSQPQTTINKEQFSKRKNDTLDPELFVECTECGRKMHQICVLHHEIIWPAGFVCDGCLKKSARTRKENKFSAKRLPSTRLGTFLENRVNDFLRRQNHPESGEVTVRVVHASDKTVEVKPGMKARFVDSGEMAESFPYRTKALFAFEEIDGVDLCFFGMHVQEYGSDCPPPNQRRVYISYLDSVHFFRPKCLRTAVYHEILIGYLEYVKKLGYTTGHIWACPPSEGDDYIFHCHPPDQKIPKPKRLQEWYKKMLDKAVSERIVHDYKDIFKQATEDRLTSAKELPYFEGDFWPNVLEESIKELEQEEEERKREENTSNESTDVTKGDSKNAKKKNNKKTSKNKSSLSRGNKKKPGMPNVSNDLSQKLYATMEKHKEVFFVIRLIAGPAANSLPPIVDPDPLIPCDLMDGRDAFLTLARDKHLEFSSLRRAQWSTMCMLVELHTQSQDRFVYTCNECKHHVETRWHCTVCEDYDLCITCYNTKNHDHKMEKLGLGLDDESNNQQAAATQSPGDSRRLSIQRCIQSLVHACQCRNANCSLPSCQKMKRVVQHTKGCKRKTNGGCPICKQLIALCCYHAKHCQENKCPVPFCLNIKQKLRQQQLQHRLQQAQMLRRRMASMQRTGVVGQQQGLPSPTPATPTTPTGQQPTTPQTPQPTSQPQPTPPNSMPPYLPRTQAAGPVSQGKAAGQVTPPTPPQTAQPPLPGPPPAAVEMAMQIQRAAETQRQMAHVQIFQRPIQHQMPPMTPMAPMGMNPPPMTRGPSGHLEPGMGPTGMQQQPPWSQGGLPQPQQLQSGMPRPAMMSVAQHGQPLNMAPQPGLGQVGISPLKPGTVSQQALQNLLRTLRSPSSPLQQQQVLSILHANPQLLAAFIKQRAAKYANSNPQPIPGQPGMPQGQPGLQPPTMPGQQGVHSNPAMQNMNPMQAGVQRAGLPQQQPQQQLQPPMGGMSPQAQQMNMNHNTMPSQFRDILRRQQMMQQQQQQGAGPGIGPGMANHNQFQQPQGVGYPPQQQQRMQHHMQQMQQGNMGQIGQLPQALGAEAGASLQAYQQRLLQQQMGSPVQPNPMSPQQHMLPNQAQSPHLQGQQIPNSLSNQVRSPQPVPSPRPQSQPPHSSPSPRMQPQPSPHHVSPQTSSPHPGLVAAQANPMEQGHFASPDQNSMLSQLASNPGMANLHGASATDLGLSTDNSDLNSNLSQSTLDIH
Method: as §17, §18, §19, §20, §21, §22, §23

CRBN and CBP-BRD = CRBN and CBP-BRD (Homo sapiens, UniProt Q92793+Q96SW2); assay: FluoPPI cellular ternary complex formation, CBP-BRD; assay type: cell-based; settings: U2OS cells, 6 h
[1] = target: CRBN and CBP catalytic core (Homo sapiens, UniProt Q92793+Q96SW2); assay: FluoPPI cellular ternary complex formation, CBP catalytic core; assay type: cell-based; settings: U2OS cells, 6 h
CBP-BRD [2] = target: T4, CBP-BRD (Homo sapiens, UniProt Q92793); assay: BROMOscan ligand binding site-directed competition assay, CBP; set-up: T7 phage display fusion with DNA tag for qPCR; purchased Eurofins Discovery (BROMOscan service); host or cells: E. coli infected with T7 phage; settings: for Kd: BROMOscan; for LE CBP (ligand efficiency): LE = 1.4(pIC50)/N
Method: as §1, §2, §3, §4, §5, §6, §7, §8, §9, §10, §11, §12, §13, §14, §15, §16

[3] = target: T5, CBP-BRD:CRBN thalidomide binding domain ternary complex (Homo sapiens, UniProt Q92793+Q96SW2); assay: TR-FRET CBP-BRD:PROTAC:CRBN ternary complex formation; settings: CBP-BRD and CRBN-thalidomide binding domain labeled with TR-FRET pair
T5 construct: GST-CBP (human, residues 1081-1197); the C-terminus of CRBN (human, residues 318-442); His6 with TEV cleavage site (N, cleaved yes); made in house; host or cells: Rosetta (DE3) cells (E. coli)
T5 sequence (Q92793 1081-1197): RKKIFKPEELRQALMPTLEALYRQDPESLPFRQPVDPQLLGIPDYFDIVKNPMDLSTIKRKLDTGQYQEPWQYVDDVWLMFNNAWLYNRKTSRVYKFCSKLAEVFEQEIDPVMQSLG
T5 sequence (Q96SW2 318-442): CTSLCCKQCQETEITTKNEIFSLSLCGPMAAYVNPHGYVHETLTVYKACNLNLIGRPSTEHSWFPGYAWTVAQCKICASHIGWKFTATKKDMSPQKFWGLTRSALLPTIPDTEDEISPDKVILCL
Method: (PMSF), and 1 mM EDTA) and lysed by sonication. The lysates were clarified by centrifugation (18,000 rpm, 4 °C, 1 h).
For GST-CBP the soluble proteins were loaded onto a column packed with glutathione sepharose 4B (GE Healthcare) and subsequently eluted with 10 mM reduced glutathione in buffer containing 20 mM Tris-HCl pH 8.0, and 150 mM NaCl. Finally, a size exclusion step (HiLoad 16/600 Superdex 200 pg column from GE Healthcare) was used to further purify the protein in buffer containing 50 mM HEPES pH 7.5 and 150 mM NaCl. For His-CRBN and His-CRBN-Avi(biotin), the soluble fractions were loaded onto the HisTrap FF crude column (GE Healthcare) and washed with lysis buffer supplemented with 50 mM imidazole. The proteins were eluted with a buffer containing 250 mM imidazole, 100 mM Tris-HCl pH 8.0 and 500 mM NaCl. For His-CRBN-Avi(biotin) only, recombinant TEV protease was used to cleave the His6-tag during overnight dialysis at 4 °C against buffer containing 100 mM Tris-HCl pH 8.0 and 500 mM NaCl. The dialyzed sample was passed through the HisTrap FF crude column to remove His6-tagged TEV protease and uncleaved protein. […]
The maximal control contained no PROTAC, the blank contained no SK-20 and no PROTAC – these were replaced by the appropriate buffer. […] The samples were incubated for 3 h (20 °C, dark) and the signal was detected using the Infinite M1000 plate reader (Tecan). After excitation at 317 nm, emission at 620 and 665 nm was recorded. […]
were determined according to the following equation:
activity (%) = ΔF ∗ 100 = F−Fb ∗ 100 , where Ft is the TR-FRET signal in the absence of any compound (maximal control, 100 % activity), Fb the TR-FRET signal in the absence of the GST -CBP (blank, 0 % activity) and F the TR -FRET signal in the presence of the compound. Dose -response curves were plotted in GraphPad Prism 10.2.3 and fitted with nonlinear regression “log(inhibitor) vs. normalized response – variable slope”, from which IC 50 values were determined. […]

CBP-BRD [4] = target: T4, CBP-BRD; assay: TR-FRET competition with acetylated peptide binding to CBP-BRD, with and without CRBN (cooperativity); set-up: GST-CBP (human, residues 1081-1197); made in house; host or cells: Rosetta (DE3) cells (E. coli)

Compound	Kd (EP300-BRD) [µM]	% remaining CBP (CBP) [%]	% remaining EP300 (EP300) [%]	Kd (CBP-BRD [2]) [µM]	LE EP300 (ligand efficiency) (EP300-BRD)	LE CBP (ligand efficiency) (CBP-BRD [2])	also measured
Cc1cc2c(NC(=O)c3cc(NC(=O)CCCCCCCCCCCNc4cccc5c4C(=O)N(C4CCC(=O)NC4=O)C5=O)cc(-c4ccn(C)n4)c3)cccc2nn1 (stereo not shown) [compound 4]	> 10	21	43	3.3			ternary complex formation in cells with CRBN and CBP-BRD (CRBN and CBP-BRD): good ternary complex formation; ternary complex formation in cells with CBP catalytic core [1]: able to induce ternary complex formation
Cc1cc2c(NC(=O)c3cc(NC(=O)COCCOCCOCCNc4cccc5c4C(=O)N(C4CCC(=O)NC4=O)C5=O)cc(-c4ccn(C)n4)c3)cccc2nn1 (stereo not shown) [compound 8]		81	95				
Cc1cc2c(NC(=O)c3cc(NC(=O)c4ccco4)cc(-c4ccn(C)n4)c3)cccc2nn1 [compound 2]	0.0099			0.0087	0.33	0.33	
Cc1cc2c(NC(=O)c3cc(NC(=O)CCCCCCCCCCNc4ccc5c(c4)C(=O)N(C4CCC(=O)NC4=O)C5=O)cc(-c4ccn(C)n4)c3)cccc2nn1 (stereo not shown) [compound 7]		30	69				
CC(=O)Nc1cc(C(=O)Nc2cccc3nnc(C)cc23)cc(-c2ccn(C)n2)c1 [compound 3]	0.025			0.029	0.35	0.35	
CC(=O)Nc1cc(NC(=O)c2ccco2)cc(C(=O)Nc2cccc3nnc(C)cc23)c1 [compound 1]	0.023			0.019	0.33	0.34	
Cc1cc2c(NC(=O)c3cc(NC(=O)CCCCCCCN4CCN(c5ccc6c(c5)C(=O)N(C5CCC(=O)NC5=O)C6=O)CC4)cc(-c4ccn(C)n4)c3)cccc2nn1 (stereo not shown) [compound 9]	0.045	> 95	> 95	0.028			ternary complex formation in cells with CRBN and CBP-BRD (CRBN and CBP-BRD): good ternary complex formation
Cc1cc2c(NC(=O)c3cc(NC(=O)CCCCCCCCCCNc4cccc5c4C(=O)N(C4CCC(=O)N(C)C4=O)C5=O)cc(-c4ccn(C)n4)c3)cccc2nn1 (stereo not shown) [compound 10]							degradation of CBP (CBP; 1 μM): abrogated; degradation of EP300 (EP300; 1 μM): abrogated; ternary complex formation (TR-FRET) [3]: did not show cooperativity or ternary complex formation; IC50 (CBP-BRD [4]; absence of CRBN, read-out: CBP-BRD IC50 (binary, IC50[control])): 0.22 µM; IC50 (CBP-BRD [4]; presence of high concentrations of CRBN C-terminal thalidomide binding domain, read-out: ternary IC50 (IC50[CRBN])): 0.23 µM
Cc1cc2c(NC(=O)c3cc(NC(=O)CCCCCCCCNc4cccc5c4C(=O)N(C4CCC(=O)NC4=O)C5=O)cc(-c4ccn(C)n4)c3)cccc2nn1 (stereo not shown) [compound 6]		83	87				
